Measurements: paper PMC11903733 (Frontiers in Pharmacology, 2025)

Legend:
LSD1 = target: T1, LSD1 (Homo sapiens, UniProt O60341); experiment: Lance Ultra LSD1 demethylase TR-FRET enzyme inhibition assay; format: biochemical; details: for LSD2/LSD1 selectivity (folds): ratio of LSD2 IC50 to LSD1 IC50; for IC50: recombinant human LSD1 (172–852 aa) 2 nM, Bio-H3K4me2 substrate, 1 h, TR-FRET, mean ± SD, n = 3
T1 construct: Recombinant human LSD1 (172–852 aa); by word order LSD1 from Sino Biological
Excerpt: (§1) These were utilized in both in vitro and in vivo assays. Iscove’s Modified Dulbecco’s Medium (IMDM), Roswell Park Memorial Institute (RPMI)-1640 medium, fetal bovine serum (FBS) and penicillin/streptomycin were purchased from Gibco (Grand Island, New Nork, United States). Recombinant human LSD1 (172–852 aa) and full-length LSD2 were obtained from Sino Biological Inc. and ActiveMotif.
(§2) The inhibitory effects of the tested compounds on LSD1 and LSD2 enzymes were methodically assessed using the Lance Ultra LSD1 Histone H3-Lysine 4 Demethylase Assay Kit from PerkinElmer, adhering to previously published methodologies ([Li et al., 2022]). In brief, the reaction was initiated by adding 4 μL of enzyme solution, with concentrations specified at 2 nM for LSD1 or 172 nM for LSD2, 4 μL of substrate solution [2.5 μM Bio-H3K4me2 ([…])], and 2 μL of tested compound to a Tris buffer (50 mM Tris-HCl, 50 mM NaCl, 0.01% Tween 20, 1 mM DTT, 10 μM FAD, 10% glycerol, pH 9.0) at room temperature and incubated for 1 h. Following the incubation, 5 μL of a detection mixture, comprising an Eu-labeled H3K4me0 antibody and ULight Streptavidin, was added to the reaction. The fluorescence intensity was then measured employing TR-FRET mode with excitation and emission wavelengths set at 320 nm and 665 nm, respectively, utilizing the Envision (PerkinElmer) system. Each experiment was performed in triplicate.

LSD2 = target: T2, LSD2 (Homo sapiens, UniProt Q8NB78); experiment: Lance Ultra demethylase TR-FRET enzyme inhibition assay, LSD2; format: biochemical; details: full-length LSD2 172 nM, Bio-H3K4me2 substrate, 1 h, mean ± SD, n = 3
T2 construct: full-length LSD2; by word order LSD2 from ActiveMotif
T2 sequence (Q8NB78 1-822): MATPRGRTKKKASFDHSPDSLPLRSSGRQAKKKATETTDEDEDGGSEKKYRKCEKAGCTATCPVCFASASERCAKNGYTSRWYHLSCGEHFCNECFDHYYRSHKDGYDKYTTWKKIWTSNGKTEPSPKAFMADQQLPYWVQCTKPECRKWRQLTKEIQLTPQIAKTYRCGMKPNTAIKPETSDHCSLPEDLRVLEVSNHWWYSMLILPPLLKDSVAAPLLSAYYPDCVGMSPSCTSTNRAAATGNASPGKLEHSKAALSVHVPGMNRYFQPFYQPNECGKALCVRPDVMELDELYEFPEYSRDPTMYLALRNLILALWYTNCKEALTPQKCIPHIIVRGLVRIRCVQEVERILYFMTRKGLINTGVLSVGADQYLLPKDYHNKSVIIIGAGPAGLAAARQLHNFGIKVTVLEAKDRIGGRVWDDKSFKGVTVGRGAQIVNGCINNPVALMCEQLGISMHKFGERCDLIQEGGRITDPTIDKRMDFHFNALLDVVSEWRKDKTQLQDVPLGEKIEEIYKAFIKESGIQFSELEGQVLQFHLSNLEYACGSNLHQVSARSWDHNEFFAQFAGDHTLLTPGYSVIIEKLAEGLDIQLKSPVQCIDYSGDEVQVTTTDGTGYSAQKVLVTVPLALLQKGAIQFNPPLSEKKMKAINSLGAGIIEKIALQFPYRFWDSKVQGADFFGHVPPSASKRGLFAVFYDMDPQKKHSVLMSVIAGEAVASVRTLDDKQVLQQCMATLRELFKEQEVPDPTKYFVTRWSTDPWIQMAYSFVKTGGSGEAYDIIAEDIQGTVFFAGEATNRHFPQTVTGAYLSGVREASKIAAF
Excerpt: as §1, §2

MV-4-11 cells = experiment: MTS cell proliferation assay; format: cell-based; details: Homo sapiens, MV4-11, LSD1-addicted MV-4-11 leukemia cells, 72 h
Procedure: (§3) The myeloid leukemia cell lines MV-4-11, MOLT-4, MOLM-16, HL-60, and the human B lymphocyte cell line […] were purchased from the American Type Culture Collection (ATCC, Manassas, VA, United States). The myeloid leukemia cell line HAL-01 was obtained from the Deutsche Sammlung von Mikroorganismen und Zellkulturen GmbH (DSMZ, Braunschweig, Germany). All cells were cultured in IMDM or RPMI -1640 medium supplemented with 10% FBS, 100 U/mL penicillin, and 100 μg/mL streptomycin. The cells were maintained in a humidified incubator with an atmosphere of 5% CO2 at 37°C.
(§4) The in vitro anti-proliferative activity of the compounds was determined using the CellTiter 96® AQueous NonRadioactive Cell Proliferation Assay Kit (Promega, Madison, United States) as previously described ([Ji et al., 2017]). In brief, 5–10 × 10^3 cells and 180 μL of medium were first seeded into each well of a 96-well plate. Subsequently, the cells were exposed to either 0.2% Dimethyl sulfoxide (DMSO, Aladdin Reagent, Shanghai, China) or a serial dilution of the compounds, prepared from a 10 mM stock solution in DMSO, with the final concentration of DMSO being 0.2% for 72 h. 20 μL of MTS reagent was added to each well, and the culture was incubated in the dark at 37°C for 4 h. Finally, the optical density (OD) was then recorded at 490 nm and 690 nm using a microplate reader from Molecular Devices. The proliferation inhibition rate was calculated according to the following formula: inhibition ratio = (OD of DMSO treated wells - OD of compound treated wells)/(OD of DMSO treated wells - OD of blank wells) × 100%. The IC50 values of the compounds inhibiting cell proliferation were calculated using GraphPad Prism 10 (GraphPad Software Inc., San Diego, CA).

RPMI-8226 cells = experiment: MTS cell proliferation assay; format: cell-based; details: Homo sapiens, LSD1-non-sensitive RPMI-8226 cells, 72 h
Procedure: as §3, §4

| LSD2/LSD1 selectivity (folds) (LSD1) | IC50 (LSD1) | IC50 (LSD2) | IC50 (MV-4-11 cells) | IC50 (RPMI-8226 cells) | Compound |
| --- | --- | --- | --- | --- | --- |
| 4 folds | 24.5 ± 2.26 nM | 104 ± 5.75 nM | 1.17 ± 0.28 µM | 21.3 ± 2.69 µM | O=C(O)c1ccc(CN2CCC(CN[C@@H]3C[C@H]3c3ccccc3)CC2)cc1 [GSK2879552, reference compound] |
| 215 folds | 10.2 ± 2.71 nM | 2200 nM | 0.74 ± 0.06 µM | > 100 µM | O=S(=O)(c1cccc(-c2ccccc2)c1)N1CCc2cc(C3CC3NCC3CCNCC3)ccc21 (stereo not drawn) [LTM-2] |
| >302 folds | 16.5 ± 2.39 nM | > 5000 nM | 0.98 ± 0.07 µM | > 100 µM | O=S(=O)(c1cccc(CC2CCCCC2)c1)N1CCc2cc(C3CC3NCC3CCNCC3)ccc21 (stereo not drawn) [LTM-6] |
| 97 folds | 8.92 ± 0.57 nM | 861 ± 26.7 nM | 0.63 ± 0.05 µM | > 100 µM | C=CCc1cccc(S(=O)(=O)N2CCc3cc(C4CC4NCC4CCNCC4)ccc32)c1 (stereo not drawn) [LTM-4] |
| 668 folds | 4.57 ± 0.32 nM | 3050 nM | 0.32 ± 0.04 µM | > 100 µM | O=S(=O)(c1ccc(CO)c(Cl)c1)N1CCc2cc(C3CC3NCC3CCNCC3)ccc21 (stereo not drawn) [LTM-3] |
| 92 folds | 7.31 ± 0.46 nM | 674 ± 21.5 nM | 0.51 ± 0.03 µM | > 100 µM | O=S(=O)(c1cccc(CC2CC2)c1)N1CCc2cc(C3CC3NCC3CCNCC3)ccc21 (stereo not drawn) [LTM-5] |
